Reference: ChEMBL document CHEMBL4041544, “Discovery of new selective glucocorticoid receptor agonist leads” (Bioorg Med Chem Lett, 2017)
Converted amounts (≈) assume the structure as drawn.

Columns and labels:
[1] = target: T1, Glucocorticoid receptor (Homo sapiens, UniProt P04150); experiment: Transrepression activity at glucocorticoid receptorin human HeLa cells assessed as inhibition of TPA-induced collagenase promoter activity by luciferase reporter gene assay; format: cell-based
T1 sequence (P04150 whole entry): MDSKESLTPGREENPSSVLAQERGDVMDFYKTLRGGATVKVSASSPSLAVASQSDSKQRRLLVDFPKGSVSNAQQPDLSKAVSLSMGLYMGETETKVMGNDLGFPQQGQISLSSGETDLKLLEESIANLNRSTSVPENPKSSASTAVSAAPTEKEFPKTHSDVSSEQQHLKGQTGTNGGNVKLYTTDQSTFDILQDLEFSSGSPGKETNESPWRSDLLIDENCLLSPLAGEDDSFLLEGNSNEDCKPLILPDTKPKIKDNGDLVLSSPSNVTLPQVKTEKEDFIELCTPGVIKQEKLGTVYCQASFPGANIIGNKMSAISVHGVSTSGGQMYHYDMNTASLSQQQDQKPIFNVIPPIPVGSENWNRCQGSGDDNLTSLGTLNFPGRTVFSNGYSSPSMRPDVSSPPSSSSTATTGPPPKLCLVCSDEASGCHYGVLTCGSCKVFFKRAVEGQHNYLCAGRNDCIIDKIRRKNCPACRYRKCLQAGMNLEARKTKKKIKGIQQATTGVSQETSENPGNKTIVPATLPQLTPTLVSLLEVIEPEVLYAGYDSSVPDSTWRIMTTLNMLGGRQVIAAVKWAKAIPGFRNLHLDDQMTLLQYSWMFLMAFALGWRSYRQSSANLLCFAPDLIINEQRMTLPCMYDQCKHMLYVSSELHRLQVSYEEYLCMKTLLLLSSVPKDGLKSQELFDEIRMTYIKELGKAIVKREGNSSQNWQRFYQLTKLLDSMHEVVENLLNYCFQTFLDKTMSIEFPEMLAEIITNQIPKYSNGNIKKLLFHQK

[2] = target: T1, Glucocorticoid receptor; experiment: Transactivation activity at glucocorticoid receptor in human HeLa cells assessed as induction of MMTV promoter activity by luciferase reporter gene assay; format: cell-based
[3] = target: T1, Glucocorticoid receptor; experiment: Transrepression activity at glucocorticoid receptor in human THP1 cells assessed as receptor-mediated anti-inflammatory activity by measuring inhibition of LPS-induced IL-8 production; format: cell-based
[4] = target: T1, Glucocorticoid receptor; experiment: Binding affinity to recombinant human glucocorticoid receptor expressed in baculovirus infected sf9 cells
[5] = target: T2, Progesterone receptor (Homo sapiens, UniProt P06401); experiment: Binding affinity to recombinant human progesterone receptor expressed in baculovirus infected sf9 cells
T2 sequence (P06401 whole entry): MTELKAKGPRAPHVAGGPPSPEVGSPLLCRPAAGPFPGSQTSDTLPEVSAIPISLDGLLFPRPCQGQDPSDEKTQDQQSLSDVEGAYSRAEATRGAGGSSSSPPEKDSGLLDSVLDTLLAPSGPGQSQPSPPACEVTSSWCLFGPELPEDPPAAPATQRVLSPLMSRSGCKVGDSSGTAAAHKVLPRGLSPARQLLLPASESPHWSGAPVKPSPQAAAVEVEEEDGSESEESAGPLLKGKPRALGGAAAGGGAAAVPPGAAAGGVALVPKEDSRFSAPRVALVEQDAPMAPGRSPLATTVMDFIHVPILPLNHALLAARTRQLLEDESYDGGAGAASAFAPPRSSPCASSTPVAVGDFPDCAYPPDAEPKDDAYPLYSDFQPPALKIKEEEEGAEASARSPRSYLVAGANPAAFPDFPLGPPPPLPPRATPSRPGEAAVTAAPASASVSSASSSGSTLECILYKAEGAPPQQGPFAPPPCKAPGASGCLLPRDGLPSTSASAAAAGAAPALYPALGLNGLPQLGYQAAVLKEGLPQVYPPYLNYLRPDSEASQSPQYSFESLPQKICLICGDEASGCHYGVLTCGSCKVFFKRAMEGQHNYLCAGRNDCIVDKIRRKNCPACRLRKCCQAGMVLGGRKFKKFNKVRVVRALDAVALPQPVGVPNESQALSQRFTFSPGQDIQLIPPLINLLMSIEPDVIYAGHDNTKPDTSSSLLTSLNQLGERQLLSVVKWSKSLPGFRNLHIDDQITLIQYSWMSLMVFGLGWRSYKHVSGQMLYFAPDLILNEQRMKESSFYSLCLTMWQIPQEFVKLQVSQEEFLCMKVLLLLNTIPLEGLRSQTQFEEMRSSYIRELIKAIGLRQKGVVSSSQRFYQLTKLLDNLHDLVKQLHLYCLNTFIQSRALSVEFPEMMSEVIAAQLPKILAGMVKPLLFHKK

[6] = target: T3, Mineralocorticoid receptor (Homo sapiens, UniProt P08235); experiment: Binding affinity to recombinant human mineralocorticoid receptor expressed in baculovirus infected sf9 cells
T3 sequence (P08235 whole entry): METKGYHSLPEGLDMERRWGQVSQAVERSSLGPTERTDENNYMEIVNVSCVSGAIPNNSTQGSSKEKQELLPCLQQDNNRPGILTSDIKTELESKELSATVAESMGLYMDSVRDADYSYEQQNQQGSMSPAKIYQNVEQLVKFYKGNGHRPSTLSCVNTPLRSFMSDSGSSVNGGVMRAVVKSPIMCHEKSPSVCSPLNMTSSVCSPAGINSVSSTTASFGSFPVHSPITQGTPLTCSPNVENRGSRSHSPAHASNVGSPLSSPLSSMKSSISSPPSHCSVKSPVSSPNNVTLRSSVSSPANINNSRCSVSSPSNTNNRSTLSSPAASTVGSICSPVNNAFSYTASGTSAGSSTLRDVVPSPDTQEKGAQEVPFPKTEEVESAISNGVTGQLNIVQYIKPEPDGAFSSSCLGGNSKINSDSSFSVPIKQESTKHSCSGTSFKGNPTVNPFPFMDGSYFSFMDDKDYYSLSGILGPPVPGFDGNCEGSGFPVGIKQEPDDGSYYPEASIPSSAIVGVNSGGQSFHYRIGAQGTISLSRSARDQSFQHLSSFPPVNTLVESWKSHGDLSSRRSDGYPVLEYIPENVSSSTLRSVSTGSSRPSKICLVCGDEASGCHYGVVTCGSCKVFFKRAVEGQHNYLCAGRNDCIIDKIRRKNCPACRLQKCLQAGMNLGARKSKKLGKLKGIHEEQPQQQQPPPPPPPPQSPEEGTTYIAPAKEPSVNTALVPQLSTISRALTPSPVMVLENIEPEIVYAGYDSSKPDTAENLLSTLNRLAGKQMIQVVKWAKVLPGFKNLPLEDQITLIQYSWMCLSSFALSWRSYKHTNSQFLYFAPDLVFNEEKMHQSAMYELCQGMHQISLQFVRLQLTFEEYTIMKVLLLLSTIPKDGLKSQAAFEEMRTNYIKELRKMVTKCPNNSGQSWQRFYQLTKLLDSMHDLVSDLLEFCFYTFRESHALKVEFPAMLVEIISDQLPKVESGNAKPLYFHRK

[7] = target: T4, Androgen receptor (Homo sapiens, UniProt P10275); experiment: Binding affinity to recombinant human androgen receptor expressed in baculovirus infected sf9 cells
T4 sequence (P10275 whole entry): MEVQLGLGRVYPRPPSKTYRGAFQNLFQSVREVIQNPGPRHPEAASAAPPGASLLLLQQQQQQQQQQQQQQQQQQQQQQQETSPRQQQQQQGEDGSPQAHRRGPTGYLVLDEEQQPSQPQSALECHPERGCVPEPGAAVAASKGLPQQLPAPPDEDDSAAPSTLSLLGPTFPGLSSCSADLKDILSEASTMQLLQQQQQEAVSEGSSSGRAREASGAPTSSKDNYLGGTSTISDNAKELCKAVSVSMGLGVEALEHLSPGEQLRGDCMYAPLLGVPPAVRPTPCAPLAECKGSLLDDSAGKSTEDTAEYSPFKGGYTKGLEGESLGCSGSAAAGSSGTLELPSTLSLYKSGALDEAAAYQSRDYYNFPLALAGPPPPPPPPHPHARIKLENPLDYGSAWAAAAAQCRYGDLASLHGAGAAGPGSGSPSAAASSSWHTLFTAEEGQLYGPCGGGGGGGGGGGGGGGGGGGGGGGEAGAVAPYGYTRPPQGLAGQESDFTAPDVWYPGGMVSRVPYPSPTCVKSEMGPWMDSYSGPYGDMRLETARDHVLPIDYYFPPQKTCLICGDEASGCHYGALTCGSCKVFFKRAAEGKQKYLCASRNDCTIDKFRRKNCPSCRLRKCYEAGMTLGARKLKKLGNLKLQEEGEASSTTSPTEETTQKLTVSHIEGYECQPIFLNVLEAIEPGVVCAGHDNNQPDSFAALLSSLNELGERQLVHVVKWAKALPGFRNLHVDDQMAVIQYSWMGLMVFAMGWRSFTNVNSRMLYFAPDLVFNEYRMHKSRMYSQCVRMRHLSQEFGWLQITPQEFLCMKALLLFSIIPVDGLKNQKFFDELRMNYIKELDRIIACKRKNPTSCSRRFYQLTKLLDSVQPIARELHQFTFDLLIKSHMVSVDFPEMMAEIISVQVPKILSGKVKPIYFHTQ

[8] = Stability in human liver microsomes assessed as drug recovery after 30 mins; format: ADME, microsome; conditions: read-out: Drug recovery
[9] = Thermodynamic solubility of the compound in 0.1 M phosphate buffer at pH 7.4 at 25 degC; format: physicochemical; conditions: read-out: Therm_solubility
[10] = Lipophilicity, log P of the compound; format: physicochemical; conditions: octanol/water
[11] = Blood clearance in rat at 1.25 mg/kg, iv administered as bolus dose; format: ADME, organism-based; conditions: whole blood
[12] = Volume of distribution at steady state in rat at 1.25 mg/kg, iv administered as bolus dose; format: ADME, organism-based; conditions: in vivo, read-out: Vdss
[13] = Half life in rat at 1.25 mg/kg, iv administered as bolus dose; format: ADME, organism-based; conditions: in vivo
[14] = Oral bioavailability in rat at 10 mg/kg dosed as microcrystalline suspension; format: ADME, organism-based; conditions: in vivo
[15] = system: Rattus norvegicus; experiment: Anti-inflammatory activity in po dosed Wistar rat assessed as inhibition of croton oil-induced ear edema; format: functional
[16] = system: Rattus norvegicus; experiment: Anti-inflammatory activity in po dosed Brown Norway rat assessed as inhibition of TMA-induced ear edema; format: functional
[17] = system: Rattus norvegicus; experiment: Anti-inflammatory activity in Wistar rat assessed as inhibition of croton oil-induced ear edema at 30 mg/kg, po relative to control; format: functional
[18] = system: Rattus norvegicus; experiment: Anti-inflammatory activity in Brown Norway rat assessed as inhibition of TMA-induced ear edema at 30 mg/kg, po relative to control; format: functional

Row | SMILES | IC50 [1] | pEC50 [2] | IC50 [3] | IC50 [4] | IC50 [5] | IC50 [6] | IC50 [7] | remaining at 0.5 h [8] | solubility thermodynamic [9] | logP [10] | clearance [11] | Vd [12] | half-life [13] | bioavailability [14] | ED50 [15] | ED50 [16] | Imax [17] | Imax [18]
1 | CC[C@@H]1C[C@](O)(C(F)(F)F)[C@@H](Nc2cc(F)cc3nc(C)ncc23)c2ccc(F)c(O)c21 | 6.31 nM | 7.6 | 6.31 nM | 126 nM | > 1000 nM | > 1000 nM | > 1000 nM | 98% | 26 µg/mL (≈ 57.3 µM) | 4 | 26.7 mL/min/kg | 11 L/kg | 5.8 h | 59% | 1.4 mg/kg | 1.3 mg/kg | 124% | 55%
2 | C=C(C)C[C@@](O)([C@@H](Nc1cccc2c(=O)[nH]ccc12)c1cc(Br)ccc1O)C(F)(F)F (racemic) | 20 nM | 6.8 | 20 nM | 63.1 nM | 631 nM | > 1000 nM | > 1000 nM | – | – | – | – | – | – | – | – | – | – | –
3 | C[C@@H]1C[C@H]2[C@@H]3CCC4=CC(=O)C=C[C@]4(C)[C@@]3(F)[C@@H](O)C[C@]2(C)[C@@]1(O)C(=O)CO [DEXAMETHASONE] | – | – | – | – | > 1000 nM | – | – | – | – | – | – | – | – | – | – | – | – | –
4 | C[C@]12C=CC(=O)C=C1CC[C@@H]1[C@@H]2[C@@H](O)C[C@@]2(C)[C@H]1CC[C@]2(O)C(=O)CO [PREDNISOLONE] | – | – | – | – | – | – | – | – | – | – | – | – | – | – | 15.7 mg/kg | 6.7 mg/kg | 83% | 107%

Further lines, with some results ahead:

Row | IC50 [1] | pEC50 [2] | IC50 [3] | IC50 [4] | IC50 [5] | IC50 [6] | IC50 [7] | remaining at 0.5 h [8] | solubility thermodynamic [9] | logP [10] | clearance [11] | Vd [12] | half-life [13] | bioavailability [14] | SMILES | ED50 [15] | ED50 [16] | Imax [17] | Imax [18]
5 | 15.8 nM | 7.6 | 15.8 nM | 15.8 nM | 794 nM | > 1000 nM | 794 nM | – | – | – | – | – | – | – | CC1(C)C[C@](O)(C(F)(F)F)[C@@H](Nc2cccc3[nH]c(=O)ccc23)c2ccc(F)c(O)c21 | – | – | – | –
6 | 20 nM | 7.4 | 20 nM | 15.8 nM | > 1000 nM | > 1000 nM | > 1000 nM | – | – | – | – | – | – | – | Cc1ccc2c(N[C@H]3c4ccc(F)c(O)c4[C@H](C)C[C@]3(O)C(F)(F)F)cccc2n1 | – | – | – | –
7 | 6.31 nM | 7.9 | 6.31 nM | 20 nM | 794 nM | > 1000 nM | 316 nM | 48% | – | – | – | – | – | – | CC1(C)C[C@](O)(C(F)(F)F)[C@@H](Nc2cccc3c(=O)[nH]ccc23)c2ccc(F)c(O)c21 (racemic) | – | – | – | –
